Patent US20040116420A1 (priority 2001, published 2004)
pIC50: −log10 of the molar value.

Legend:
Vero cells = experiment: Cytotoxicity, Vero cells, Alamar Blue; type: cell-based; conditions: 25 μM, 20 hours
Outline: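 Living-cell ratio versus untreated control was read by Alamar Blue absorbance after about 6 h of dye incubation. Before that, Vero cells had received 25 μM test compound in 2% FBS-DMEM for 20 hours at 37 °C under 5% CO2.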

HSV-1 = experiment: Antiviral activity, HSV-1 in Vero cells, plaque method; type: cell-based; conditions: 90% inhibition of plaque formation
Outline: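 This is a virus-yield read-out. The culture medium was frozen at −80° C and thawed, and the plaques it formed were counted. It came from Vero monolayers infected with 50,000 pfu HSV-1 and then exposed to the compound for 20 h at 37° C. EC90 is the concentration inhibiting 90% of plaque formation relative to the untreated infected control.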

HSV-1 protease = molecular target: T1, HSV-1 protease (Human herpesvirus 1, UniProt P10210); experiment: Enzymatic assay for HSV-1 protease (assembly) inhibitor, fluorescence polarization; type: biochemical; conditions: read-out: HSV-1 Enzyme inhibition IC50
T1 construct: 6xHis (N); made in house; host or cells: baculovirus expression system
T1 sequence (P10210 1-247): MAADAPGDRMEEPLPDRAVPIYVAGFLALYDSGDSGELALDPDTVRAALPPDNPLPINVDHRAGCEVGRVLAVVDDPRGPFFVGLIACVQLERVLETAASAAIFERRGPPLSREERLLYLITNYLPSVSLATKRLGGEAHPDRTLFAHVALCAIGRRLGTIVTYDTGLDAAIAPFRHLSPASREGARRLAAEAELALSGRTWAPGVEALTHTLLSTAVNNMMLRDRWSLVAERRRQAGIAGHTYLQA
Outline: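 Fluorescence polarization read-out: after avidin stop, cleavage of a biotinylated DTAF-labelled release-site peptide by recombinant N-His6 HSV-1 protease was compared with no-inhibitor wells. Enzyme and compound were preincubated 30 min, then substrate reacted 60 min, all at room temperature, pH 7.4 citrate buffer with TCEP.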

[1] = Human alphaherpesvirus 1, 20 hours

SMILES | Cell viability (% of control) (Vero cells) [%] | EC90 (HSV-1; [1]) [µM] | pIC50 (HSV-1 protease) | EC90 (HSV-1; 20 hours) [µM]
Cc1c(NC(=O)OC(C)(C)C)ccc2nc(N(C)[C@@H](C)C(=O)N(C)CCc3cccnc3)oc(=O)c12 [Compound No.77, [5-Methyl-2-(methyl-{1S-[methyl-(2-pyridin-3-yl-ethyl)-carbamoyl]-ethyl}-amino)-4-oxo-4H-benzo[d][1,3]oxazin-6-yl]-carbamic acid tert-butyl ester] | 94.4 | > 12.5 | 5.74 | –
Cc1c(NC(=O)OC(C)(C)C)ccc2nc(N(C)[C@@H](C)C(=O)N(C)CCc3ccncc3)oc(=O)c12 [Compound No.78, [5-Methyl-2-(methyl-{1S-[methyl-(2-pyridin-4-yl-ethyl)-carbamoyl]-ethyl}-amino)-4-oxo-4H-benzo[d][1,3]oxazin-6-yl]-carbamic acid tert-butyl ester] | 90.7 | > 12.5 | 5.85 | –
Cc1c(NC(=O)OC(C)(C)C)ccc2nc(N(C)[C@@H](Cc3ccccc3)C(=O)NCc3cccnc3)oc(=O)c12 [Compound No.79, [5-Methyl-2-(methyl-{2-phenyl-1S-[(pyridin-3-ylmethyl)-carbamoyl]-ethyl}-amino)-4-oxo-4H-benzo[d][1,3]oxazin-6-yl]-carbamic acid tert-butyl ester] | 38.5 | 6 | 6.00 | –
Cc1c(NC(=O)OC(C)(C)C)ccc2nc(N(C)[C@@H](Cc3ccccc3)C(=O)NCc3ccncc3)oc(=O)c12 [Compound No.80, [5-Methyl-2-(methyl-{2-phenyl-1S-[(pyridin-4-ylmethyl)-carbamoyl]-ethyl}-amino)-4-oxo-4H-benzo[d][1,3]oxazin-6-yl]-carbamic acid tert-butyl ester] | 48.0 | 5.9 | 6.05 | –
Cc1c(NC(=O)OC(C)(C)C)ccc2nc(N(C)[C@@H](Cc3ccccc3)C(=O)NCCc3ccccn3)oc(=O)c12 [Compound No.81, (5-Methyl-2-{methyl-[2-phenyl-1S-(2-pyridin-2-yl-ethylcarbamoyl)-ethyl]-amino}-4-oxo-4H-benzo[d][1,3]oxazin-6-yl)-carbamic acid tert-butyl ester] | 49.7 | 9.5 | 5.77 | –
Cc1c(NC(=O)OC(C)(C)C)ccc2nc(N(C)[C@@H](Cc3ccccc3)C(=O)N(C)Cc3ccccn3)oc(=O)c12 [Compound No.82, (5-Methyl-2-{methyl-[1S-(methyl-pyridin-2-ylmethyl-carbamoyl)-2-phenyl-ethyl]-amino}-4-oxo-4H-benzo[d][1,3]oxazin-6-yl)-carbamic acid tert-butyl ester] | 61.6 | 10.8 | 5.82 | –
Cc1c(NC(=O)OC(C)(C)C)ccc2nc(N(C)[C@@H](Cc3ccccc3)C(=O)N(C)CCc3ccccn3)oc(=O)c12 [Compound No.83, [5-Methyl-2-(methyl-{1S-[methyl-(2-pyridin-2-yl-ethyl)carbamoyl]-2-phenyl-ethyl}-amino)-4-oxo-4H-benzo[d][1,3]oxazin-6-yl]-carbamic acid tert-butyl ester] | 66.6 | 11.5 | 5.59 | –
Cc1c(NC(=O)OC(C)(C)C)ccc2nc(N(C)[C@@H](Cc3ccccc3)C(=O)N(C)CCc3cccnc3)oc(=O)c12 [Compound No.84, [5-Methyl-2-(methyl-{1S-[methyl-(2-pyridin-3-yl-ethyl)-carbamoyl]-2-phenyl-ethyl}-amino)-4-oxo-4H-benzo[d][1,3]oxazin-6-yl]-carbamic acid tert-butyl ester] | 37.6 | 11 | 5.77 | –
Cc1c(NC(=O)OC(C)(C)C)ccc2nc(N(C)[C@@H](Cc3ccccc3)C(=O)N(C)CCc3ccncc3)oc(=O)c12 [Compound No.85, [5-Methyl-2-(methyl-{1S-[methyl-(2-pyridin-4-yl-ethyl)-carbamoyl]-2-phenyl-ethyl}-amino)-4-oxo-4H-benzo[d][1,3]oxazin-6-yl]-carbamic acid tert-butyl ester] | 60.7 | 11.7 | 5.64 | –
Cc1c(NC(=O)OC(C)(C)C)ccc2nc(N3CCC[C@H]3C(=O)NCc3ccccn3)oc(=O)c12 [Compound No.86, (5-Methyl-4-oxo-2-{2S-[(pyridin-2-ylmethyl)-carbamoyl]-pyrrolidin-1-yl}-4H-benzo[d][1,3]oxazin-6-yl)-carbamic acid tert-butyl ester] | 94.6 | > 12.5 | 5.96 | –
Cc1c(NC(=O)OC(C)(C)C)ccc2nc(N3CCC[C@H]3C(=O)NCc3cccnc3)oc(=O)c12 [Compound No.87, (5-Methyl-4-oxo-2-{2S-[(pyridin-3-ylmethyl)-carbamoyl]-pyrrolidin-1-yl}-4H-benzo[d][1,3]oxazin-6-yl)-carbamic acid tert-butyl ester] | 92.4 | > 12.5 | 5.77 | –
Cc1c(NC(=O)OC(C)(C)C)ccc2nc(N3CCC[C@H]3C(=O)NCc3ccncc3)oc(=O)c12 [Compound No.88, (5-Methyl-4-oxo-2-{2S-[(pyridin-4-ylmethyl)-carbamoyl]-pyrrolidin-1-yl}-4H-benzo[d][1,3]oxazin-6-yl)-carbamic acid tert-butyl ester] | 74.1 | – | 5.57 | > 12.5
Cc1c(NC(=O)OC(C)(C)C)ccc2nc(N3CCC[C@H]3C(=O)NCCc3ccccn3)oc(=O)c12 [Compound No.89, {5-Methyl-4-oxo-2-[2S-(2-pyridin-2-ylethylcarbamoyl)-pyrrolidin-1-yl]-4H-benzo[d][1,3]oxazin-6-yl}-carbamic acid tert-butyl ester] | 92.6 | > 12.5 | 5.85 | –
Cc1c(NC(=O)OC(C)(C)C)ccc2nc(N3CCC[C@H]3C(=O)N(C)Cc3ccccn3)oc(=O)c12 [Compound No.90, {5-Methyl-2-[2S-(methyl-pyridin-2-ylmethyl-carbamoyl)-pyrrolidin-1-yl]-4-oxo-4H-benzo[d][1,3]oxazin-6-yl}-carbamic acid tert-butyl ester] | 93.6 | > 12.5 | 4.77 | –
Cc1c(NC(=O)OC(C)(C)C)ccc2nc(N3CCC[C@H]3C(=O)N(C)CCc3ccccn3)oc(=O)c12 [Compound No.91, (5-Methyl-2-{2S-[methyl-(2-pyridin-2-yl-ethyl)-carbamoyl]-pyrrolidin-1-yl}-4-oxo-4H-benzo[d][1,3]oxazin-6-yl)-carbamic acid tert-butyl ester] | 92.3 | > 12.5 | < 4.70 | –
Cc1c(NC(=O)OC(C)(C)C)ccc2nc(N3CCC[C@H]3C(=O)N(C)CCc3cccnc3)oc(=O)c12 [Compound No.92, (5-Methyl-2-{2S-[methyl-(2-pyridin-3-yl-ethyl)-carbamoyl]-pyrrolidin-1-yl}-4-oxo-4H-benzo[d][1,3]oxazin-6-yl)-carbamic acid tert-butyl ester] | 87.2 | > 12.5 | < 4.70 | –
Cc1c(NC(=O)OC(C)(C)C)ccc2nc(N3CCC[C@H]3C(=O)N(C)CCc3ccncc3)oc(=O)c12 [Compound No.93, (5-Methyl-2-{2S-[methyl-(2-pyridin-4-yl-ethyl)-carbamoyl]-pyrrolidin-1-yl}-4-oxo-4H-benzo[d][1,3]oxazin-6-yl)-carbamic acid tert-butyl ester] | 82.4 | > 12.5 | < 4.70 | –
Cc1c(NC(=O)OC(C)(C)C)ccc2nc(N3Cc4ccccc4C[C@H]3C(=O)NCc3ccccn3)oc(=O)c12 [Compound No.94, (5-Methyl-4-oxo-2-{3S-[(pyridin-2-ylmethyl)-carbamoyl]-3,4-dihydro-1H-isoquinolin-2-yl}-4H-benzo[d][1,3]oxazin-6-yl)-carbamic acid tert-butyl ester] | 55.2 | 5.4 | 5.64 | –
Cc1c(NC(=O)OC(C)(C)C)ccc2nc(N3Cc4ccccc4C[C@H]3C(=O)NCc3cccnc3)oc(=O)c12 [Compound No.95, (5-Methyl-4-oxo-2-{3S-[(pyridin-3-ylmethyl)-carbamoyl]-3,4-dihydro-1H-isoquinolin-2-yl}-4H-benzo[d][1,3]oxazin-6-yl)-carbamic acid tert-butyl ester] | 44.0 | 12.3 | 5.36 | –
Cc1c(NC(=O)OC(C)(C)C)ccc2nc(N3Cc4ccccc4C[C@H]3C(=O)NCc3ccncc3)oc(=O)c12 [Compound No.96, (5-Methyl-4-oxo-2-{3S-[(pyridin-4-ylmethyl)-carbamoyl]-3,4-dihydro-1H-isoquinolin-2-yl}-4H-benzo[d][1,3]oxazin-6-yl)-carbamic acid tert-butyl ester] | 55.4 | 11.2 | 5.26 | –
Cc1c(NC(=O)OC(C)(C)C)ccc2nc(N3Cc4ccccc4C[C@H]3C(=O)NCCc3ccccn3)oc(=O)c12 [Compound No.97, {5-Methyl-4-oxo-2-[3S-(2-pyridin-2-yl-ethylcarbamoyl)-3,4-dihydro-1H-isoquinolin-2-yl]-4H-benzo[d][1,3]oxazin-6-yl}-carbamic acid tert-butyl ester] | 51.3 | 11 | 5.48 | –
